Several values for one entry are separate records, joined by “and”; a condition that tells them apart may be missing. Equal values may be shown once.
Details: Fluid (supercritical or subcritical phases); for mass density: Buoyancy - hydrostatic balance with magnetic suspension - one sinker; for viscosity: vibrating wire

CC [ethane]
Details	mass density, 293.15 K	mass density, 307.15 K [kg/m3]	viscosity, 293.15 K	viscosity, 307.15 K
64.37 kPa	0.79811 kg/m3	–	0.009075 mPa·s and 0.009074 mPa·s	–
80.37 kPa	0.99778 kg/m3	–	0.009076 mPa·s	–
80.42 kPa	0.99851 kg/m3	–	0.009075 mPa·s	–
80.48 kPa	0.99923 kg/m3	–	0.009073 mPa·s	–
92.55 kPa	–	1.0967	–	0.009492 mPa·s
92.62 kPa	–	1.0975	–	0.009489 mPa·s
97.81 kPa	–	1.1594	–	0.009507 mPa·s and 0.009508 mPa·s
160.1 kPa	2.0005 kg/m3	–	0.009083 mPa·s and 0.009082 mPa·s	–
160.16 kPa	2.0012 kg/m3	–	0.009082 mPa·s	–
160.18 kPa	–	1.907	–	0.00951 mPa·s and 0.009508 mPa·s
166.71 kPa	–	1.9856	–	0.009531 mPa·s
166.77 kPa	–	1.9863	–	0.009529 mPa·s
315.97 kPa	3.9991 kg/m3	–	0.009102 mPa·s	–
316.05 kPa	4.0002 kg/m3	–	0.009098 mPa·s and 0.009099 mPa·s	–
327.38 kPa	–	3.9439	–	0.009566 mPa·s
332.45 kPa	–	4.0065	–	0.009542 mPa·s and 0.009543 mPa·s
467.91 kPa	5.9992 kg/m3	–	0.009118 mPa·s	–
467.96 kPa	5.9999 kg/m3	–	0.009119 mPa·s	–
468.01 kPa	6.0006 kg/m3	–	0.009118 mPa·s	–
493.91 kPa	–	6.0228	–	0.009573 mPa·s
493.97 kPa	–	6.0235	–	0.009572 mPa·s
615.93 kPa	8.0004 kg/m3	–	0.009139 mPa·s and 0.009137 mPa·s	–
616.03 kPa	8.0018 kg/m3	–	0.009137 mPa·s	–
649.95 kPa	–	8.0188	–	0.009604 mPa·s
650.01 kPa	–	8.0195	–	0.009604 mPa·s
759.69 kPa	9.9972 kg/m3	–	0.009162 mPa·s and 0.009165 mPa·s	–
788.48 kPa	–	9.8322	–	0.009663 mPa·s
788.7 kPa	–	9.8351	–	0.009665 mPa·s
800.35 kPa	–	9.9895	–	0.009635 mPa·s
800.41 kPa	–	9.9903	–	0.009639 mPa·s and 0.009636 mPa·s
889.73 kPa	11.852 kg/m3	–	0.009183 mPa·s and 0.009184 mPa·s	–
889.87 kPa	11.854 kg/m3	–	0.009183 mPa·s	–
959.13 kPa	–	12.123	–	0.009675 mPa·s
959.2 kPa	–	12.124	–	0.009674 mPa·s
1036.2 kPa	14.001 kg/m3	–	0.009212 mPa·s and 0.009213 mPa·s	–
1036.3 kPa	14.002 kg/m3	–	0.009213 mPa·s	–
1094.4 kPa	–	13.987	–	0.009709 mPa·s
1094.5 kPa	–	13.988	–	0.00971 mPa·s
1167.2 kPa	15.979 kg/m3	–	0.009246 mPa·s	–
1167.3 kPa	15.98 kg/m3 and 15.981 kg/m3	–	0.009243 mPa·s	–
1233.8 kPa	–	15.953	–	0.009746 mPa·s
1233.9 kPa	–	15.955	–	0.009746 mPa·s
1293.6 kPa	17.943 kg/m3	–	0.009274 mPa·s	–
1293.8 kPa	17.946 kg/m3	–	0.009275 mPa·s	–
1343.4 kPa	–	17.536	–	0.009778 mPa·s
1420.8 kPa	19.979 kg/m3	–	0.009305 mPa·s and 0.009308 mPa·s	–
1421 kPa	19.983 kg/m3	–	0.00931 mPa·s	–
1469.3 kPa	–	19.394	–	0.009855 mPa·s
1469.5 kPa	–	19.396	–	0.009856 mPa·s
1502.4 kPa	–	19.889	–	0.00983 mPa·s and 0.009828 mPa·s
1992.4 kPa	30.002 kg/m3	–	0.009506 mPa·s	–
1992.5 kPa	30.004 kg/m3	–	0.009506 mPa·s	–
1992.6 kPa	30.006 kg/m3	–	0.009505 mPa·s	–
2477.2 kPa	40.017 kg/m3	–	0.009749 mPa·s	–
2477.4 kPa	40.022 kg/m3	–	0.009748 mPa·s	–
2477.6 kPa	40.026 kg/m3	–	0.009748 mPa·s	–
2879.7 kPa	49.983 kg/m3	–	0.01003 mPa·s	–
2879.9 kPa	49.988 kg/m3	–	0.01003 mPa·s	–
3212.1 kPa	60.071 kg/m3	–	0.01036 mPa·s	–
3212.2 kPa	60.073 kg/m3	–	0.01036 mPa·s	–
3212.3 kPa	60.079 kg/m3	–	0.01036 mPa·s	–
3471.9 kPa	70.014 kg/m3	–	0.01073 mPa·s	–
3472 kPa	70.02 kg/m3	–	0.01073 mPa·s	–
3472.2 kPa	70.027 kg/m3	–	0.01073 mPa·s	–
3577.6 kPa	74.947 kg/m3	–	0.01093 mPa·s	–
3577.8 kPa	74.957 kg/m3	–	0.01092 mPa·s	–
